Laboratory results taken from PubChem BioAssay AID2060490 (Molecular Pharmacology Branch, DTP, NCI, 2025).
pIC50: −log10 of the molar value. “And” between values parts separate entries of the source, which are not always exact repeats. Identical values can stand only once. Blank lines part the entries; values can stand above or below the molecule they belong to.

System: 885512-296-R-J2-PDC complex spheroid viability
Experiment: Anticancer human tumor 885512-296-R-J2-PDC patient-derived breast carcinoma cell line growth inhibition [GQUAD]
Conditions: for viability, T/C: stronger effect = lower value
Description: DNA G-quadruplex Stabilizer Agents in Combinations in Complex Spheroids
A high-throughput screen of multi-cell type tumor spheroids was designed to identify active combinations of DNA G-quadruplex stabilizer agents and targeted small molecules. Complex spheroids include a stromal component modeled by human endothelial cells (HUVEC) and fibroblasts modeled by human mesenchymal stem cells (MSCs). The concentration ranges selected for each drug and investigational agent were based upon clinically achievable concentrations if the clinical Cmax of the agent was known.
Compounds. The drugs and investigational agents: pidnarulex (CX-5461; NSC782164), APTO-253 (NSC789042), BRACO-19 (NSC847499), peposertib (NSC802822), ceralasertib (NSC780249), elimusertib (NSC800525), camonsertib (NSC841442), AZD-1390 (NSC803789), olaparib (NSC753686), talazoparib (NSC767125), ART-558 (NSC835418), sotorasib (NSC818433), MRTX-1133 (NSC836407), SN-38 (NSC673596), topotecan (NSC609699), etoposide (NSC141540), doxorubicin (NSC123127), gemcitabine (NSC613327), 5-fluorouracil (NSC19893), paclitaxel (NSC125973), vemurafenib (NSC761431), panobinostat (NSC761190), R-306465 (JNJ-16241199; NSC773264), adavosertib (NSC754352), TP-3654 (NSC805149), carboplatin (NSC241240), KSQ-4279 (NSC840948), and staurosporine (NSC755774) were obtained from the National Cancer Institute (NCI) Developmental Therapeutics Program Chemical Repository (34). The FDA-approved anticancer drug set is available from the NCI Developmental Therapeutics Program. […] The stock solutions were prepared in dimethyl sulfoxide (DMSO, Sigma-Aldrich, St. Louis, MO, cat. D2650) at 800-fold the tested concentration and stored at -70 degrees C prior to their use. All drugs and investigational agents were tested over a range starting from a high concentration at or near the clinical Cmax and decreasing in half-log increments. If the clinical Cmax for an agent had not been determined, the highest concentration tested was 10 microM.
2.3 Cell Culture. All cells were maintained in an incubator at 37 degrees C and 5% CO2 with 95% humidity. The PDC lines were cultured according to standard operating procedures established by the NCI PDMR. All PDCs were thawed and cultured in Matrigel-coated flasks prepared with a working solution of 1X Ham's F-12 nutrient mix, without supplementation (Invitrogen, cat. 11765054), 100 U/mL penicillin-streptomycin (Invitrogen, cat. 15140122), and 2.5% Matrigel (Corning Inc., cat. 354248) for the first three passages. The 857933-349-R-J2-PDC line was cultured in 6C/Colon 1B media, which includes advanced DMEM/F-12 (Thermo Fisher Scientific, cat. 12634028), 10 mM HEPES (Thermo Fisher Scientific, cat. 15630080), 1X GlutaMAX supplement (Thermo Fisher Scientific, cat. 35050061), 0.1 mg/mL primocin (InvivoGen, cat. ant-pm-2), 10% defined fetal bovine serum, heat inactivated (HyClone Laboratories Inc., cat. SH30070.03HI), 50% L-WRN conditioned media (ATCC, cat. CRL-3276), 1.25 mM N-Acetyl-L-cysteine (Sigma-Aldrich, cat. A9165), 10 mM nicotinamide (Sigma-Aldrich, cat. N0636), 1X B-27 supplement (Thermo Fisher Scientific, cat. 17504044), 1X N-2 supplement (Thermo Fisher Scientific, cat. 17502048), 10 microM Y-27632 dihydrochloride (Tocris Bioscience, cat. 1254), and 50 ng/mL human EGF recombinant protein (Thermo Fisher Scientific, cat. PHG0311). The 485176-168-R4-J1-PDC line was cultured in Panc media, which includes all 6C/Colon 1B media components plus 100 ng/mL human FGF-10 (Thermo Fisher Scientific, cat. 100-26), 500 nM SB-431542 (Selleckchem, cat. S1067), and gastrin (Tocris, cat. 3006).
[…]

[1] = curve of first compound, second compound 0.0316 µM
[2] = curve of first compound, second compound 0.1 µM
[3] = curve of first compound, second compound 0.316 µM
[4] = curve of first compound, second compound 1 µM
[5] = curve of first compound, second compound 3.16 µM
[6] = curve of first compound, second compound 10 µM
[7] = second compound 0.0316 µM, first compound 0.0316 µM
[8] = second compound 0.0316 µM, first compound 0.1 µM
[9] = second compound 0.0316 µM, first compound 0.316 µM
[10] = second compound 0.0316 µM, first compound 1 µM
[11] = second compound 0.0316 µM, first compound 3.16 µM
[12] = second compound 0.0316 µM, first compound 10 µM
[13] = second compound 0.1 µM, first compound 0.0316 µM
[14] = second compound 0.1 µM, first compound 0.1 µM
[15] = second compound 0.1 µM, first compound 0.316 µM
[16] = second compound 0.1 µM, first compound 1 µM
[17] = second compound 0.1 µM, first compound 3.16 µM
[18] = second compound 0.1 µM, first compound 10 µM
[19] = second compound 0.316 µM, first compound 0.0316 µM
[20] = second compound 0.316 µM, first compound 0.1 µM
[21] = second compound 0.316 µM, first compound 0.316 µM
[22] = second compound 0.316 µM, first compound 1 µM
[23] = second compound 0.316 µM, first compound 3.16 µM
[24] = second compound 0.316 µM, first compound 10 µM
[25] = second compound 1 µM, first compound 0.0316 µM
[26] = second compound 1 µM, first compound 0.1 µM
[27] = second compound 1 µM, first compound 0.316 µM
[28] = second compound 1 µM, first compound 1 µM
[29] = second compound 1 µM, first compound 3.16 µM
[30] = second compound 1 µM, first compound 10 µM
[31] = second compound 3.16 µM, first compound 0.0316 µM
[32] = second compound 3.16 µM, first compound 0.1 µM
[33] = second compound 3.16 µM, first compound 0.316 µM
[34] = second compound 3.16 µM, first compound 1 µM
[35] = second compound 3.16 µM, first compound 3.16 µM
[36] = second compound 3.16 µM, first compound 10 µM
[37] = second compound 10 µM, first compound 0.0316 µM
[38] = second compound 10 µM, first compound 0.1 µM
[39] = second compound 10 µM, first compound 0.316 µM
[40] = second compound 10 µM, first compound 1 µM
[41] = second compound 10 µM, first compound 3.16 µM
[42] = second compound 10 µM, first compound 10 µM
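Further: spheroids exposed to the compounds for one week.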
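Wherever viability, T/C is given: percent of tumor spheroid viability relative to DMSO vehicle control wells.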

pIC50 (curve of compound): < 5.00 and 5.81 and 5.77
Compound: CC(C)(O)C1CCC(Nc2ccc3ncc(-c4cccc(C(F)(F)F)c4)n3n2)CC1 (stereo unspecified)
viability, T/C (compound 0.0316 µM): 102% and 97.2% and 101%
viability, T/C (compound 0.1 µM): 93.2% and 94.8% and 101%
viability, T/C (compound 0.316 µM): 95.9% and 90.2% and 100%
viability, T/C (compound 1 µM): 89.1% and 67.6% and 76.8%
viability, T/C (compound 3.16 µM): 102% and 16.3% and 16.4%
viability, T/C (compound 10 µM): 84.3% and 28.2% and 20.7%

Compound: C#Cc1c(F)ccc2cc(O)cc(-c3ncc4c(N5CC6CCC(C5)N6)nc(OCC56CCCN5CC(F)C6)nc4c3F)c12 (stereo unspecified) + CN(C)c1ccc(Nc2c3ccc(NC(=O)CCN4CCCC4)cc3nc3cc(NC(=O)CCN4CCCC4)ccc23)cc1
pIC50 [1]: < 5.00
pIC50 [2]: < 5.00
pIC50 [3]: < 5.00
pIC50 [4]: < 5.00
pIC50 [5]: 5.10
pIC50 [6]: > 7.50
viability, T/C [7]: 108%
viability, T/C [8]: 95.7%
viability, T/C [9]: 105%
viability, T/C [10]: 96.8%
viability, T/C [11]: 106%
viability, T/C [12]: 87.6%
viability, T/C [13]: 110%
viability, T/C [14]: 86.5%
viability, T/C [15]: 99.8%
viability, T/C [16]: 98.4%
viability, T/C [17]: 89%
viability, T/C [18]: 85.4%
viability, T/C [19]: 105%
viability, T/C [20]: 99.3%
viability, T/C [21]: 96.6%
viability, T/C [22]: 89.2%
viability, T/C [23]: 91.4%
viability, T/C [24]: 87.5%
viability, T/C [25]: 88.9%
viability, T/C [26]: 97.7%
viability, T/C [27]: 99%
viability, T/C [28]: 102%
viability, T/C [29]: 94.5%
viability, T/C [30]: 104%
viability, T/C [31]: 95.3%
viability, T/C [32]: 106%
viability, T/C [33]: 97.2%
viability, T/C [34]: 89.4%
viability, T/C [35]: 86.1%
viability, T/C [36]: 41.2%
viability, T/C [37]: 21.5%
viability, T/C [38]: 15.8%
viability, T/C [39]: 18.9%
viability, T/C [40]: 13.7%
viability, T/C [41]: 13.9%
viability, T/C [42]: 1.6%

Compound: CC(C)n1c(=O)n(C)c2cnc3cc(F)c(-c4ccc(OCCCN5CCCCC5)nc4)cc3c21 + Cc1[nH]c2ccc(F)cc2c1-c1nc2c3cccnc3c3ncccc3c2[nH]1
pIC50 [1]: < 5.00
pIC50 [2]: < 5.00
pIC50 [3]: < 5.00
pIC50 [4]: 5.35
pIC50 [5]: > 7.50
pIC50 [6]: > 7.50
viability, T/C [7]: 84.4%
viability, T/C [8]: 82.5%
viability, T/C [9]: 83.2%
viability, T/C [10]: 103%
viability, T/C [11]: 112%
viability, T/C [12]: 98.9%
viability, T/C [13]: 92.1%
viability, T/C [14]: 92.3%
viability, T/C [15]: 88%
viability, T/C [16]: 104%
viability, T/C [17]: 104%
viability, T/C [18]: 122%
viability, T/C [19]: 89.1%
viability, T/C [20]: 77.6%
viability, T/C [21]: 89.7%
viability, T/C [22]: 90%
viability, T/C [23]: 103%
viability, T/C [24]: 67.3%
viability, T/C [25]: 48.6%
viability, T/C [26]: 68.2%
viability, T/C [27]: 63.9%
viability, T/C [28]: 66%
viability, T/C [29]: 68.8%
viability, T/C [30]: 19%
viability, T/C [31]: 7.3%
viability, T/C [32]: 8.5%
viability, T/C [33]: 13.1%
viability, T/C [34]: 10%
viability, T/C [35]: 10.8%
viability, T/C [36]: 1.66%
viability, T/C [37]: 1.24%
viability, T/C [38]: 4.55%
viability, T/C [39]: 2.57%
viability, T/C [40]: 2.18%
viability, T/C [41]: 2.19%
viability, T/C [42]: 1.31%
